Data taken from patent US10905761B2, “Use of a lipopeptide or lipoprotein as an adjuvant in therapeutic or prophylactic vaccinations” (HELMHOLTZ-ZENTRUM FUER INFEKTIONSFORSCHUNG GMBH, priority 2002, dated 2021).
No end group written: not given here.

Tested on: BALB/c (H-2d) mice
Assay: Kinetics of β-gal-specific IgG responses in sera of mice immunized i.n. or i.p. (Example 4)
Format: in vivo
Method: Groups of animals (n=5) were immunized either i.n. (A) or i.p. (B) with 50 μg of β-gal ( ), β-gal plus 10 μg of CTB ( ), β-gal plus 0.5 μg of MALP-2 ( ) or pure buffer solution ( ). The days of the immunizations (day 0, 14 and 21) are marked by arrows. The results are shown as the reciprocal log2 of the geometric endpoint titer, and the SEM […] is indicated by means of vertical lines.
Six- to eight-week old female BALB/c (H-2d) mice were purchased from Harlan Winkelmann GmbH (Borchen, Germany) and treated in accordance with local and EU directives. Groups each of 5 mice were immunized on day 1, 14 and 21 either with 40 μg of pure β-galactosidase (Boehringer, Mannheim, Germany) with admixture of 0.5 μg of synthetic MALP-2 or 10 μg of cholera toxin B subunit (CTB; ICN Biomedicals Inc., Ohio) as standard adjuvant. For intranasal administration (i.n.), 10 μl were administered into each nostril, while for the i.p. injection β-galactosidase was resuspended with or without MALP-2 in 400, 100 or 100 μl of PBS. Serum samples were taken at various times (day 0, 13, 20 and 30) and stored at −20° C. until the β-galactosidase-specific antibodies were determined. Nunc-Immuno MaxiSorp assay plates with 96 wells (Nunc, Roskilde, Denmark) were coated with 100 μl of β-gal (Boehringer, Mannheim, Germany) with 5 μg/ml in 0.05 M […] (pH 8.2) per well. Serial two-fold dilutions of the sera or lavages in PBS with 1% BSA and 0.05% Tween-20 were added (100 μl/well) and the plates were incubated at 37° C. for 24 hours. After rinsing, biotinylated γ chain-specific goat anti-mouse IgG (Sigma Chemie, Deisenhofen, Germany) was added, and the plates were incubated at 37° C. for a further hour. After rinsing four times, 100 μl of peroxidase-conjugated streptavidin (Pharmingen) were added to the […], and the plates were incubated at 37° C. for 30 minutes. After rinsing four times, the reactions were developed by means of ABTS in 0.1 M citrate-phosphate buffer (pH 4.35) which contained 0.01% H2O2.

Substance: S-[2,3-bispalmitoyloxypropyl]cysteinyl-GNNDESNISFKEK ({S‑(2,3-bispalmitoyloxypropyl)Cys}-GNNDESNISFKEK) [MALP-2]
- kinetics and overall efficacy of antibody responses compared with 10 μg CTB (0.5 μg MALP-2 versus 10 μg CTB, i.n.): very similar
- increase of β-galactosidase-specific IgG serum titers (i.p., 0.5 μg per animal per dose, versus pure β-galactosidase): 100 fold
- titers of specific IgG at the end of the immunization protocol (β-galactosidase with 0.5 μg MALP-2 i.n.): above 500,000
- titers of specific IgG in serum after a single dose (β-galactosidase with 0.5 μg MALP-2 i.n., single dose): > 60,000
